# Experimental data published in ChEMBL document CHEMBL3822455, “Aryl or heteroaryl substituted aminal derivatives of HCV NS5A inhibitor MK-8742” (Bioorg Med Chem Lett, 2016).
# Legend:
# [1] = (§1) Oral bioavailability in Sprague-Dawley rat at 5 mg/kg; assay type: ADME, organism-based; details: Sprague-Dawley, in vivo
# [2] = system: Hepatitis C virus; assay: Antiviral activity against HCV genotype 4a assessed as replicon RNA level measured after 3 days by real-time PCR method; assay type: functional, organism-based, Hepacivirus hominis; details: 72 h
# [3] = Clearance in Sprague-Dawley rat at 2 mg/kg, iv or 5 mg/kg, po; assay type: ADME, organism-based; details: in vivo
# [4] = system: Hepatitis C virus; assay: Antiviral activity against HCV genotype 2a assessed as replicon RNA level measured after 3 days by real-time PCR method; assay type: functional, organism-based, Hepacivirus hominis; details: 72 h
# [5] = Half life in Sprague-Dawley rat at 2 mg/kg, iv or 5 mg/kg, po; assay type: ADME, organism-based; details: in vivo
# [6] = system: Hepatitis C virus; assay: Antiviral activity against HCV genotype 1a harboring NS5A Y93H mutant assessed as replicon RNA level measured after 3 days by real-time PCR method; assay type: functional, organism-based, Hepacivirus hominis; details: subtype 1a, 72 h
# [7] = system: Hepatitis C virus; assay: Antiviral activity against HCV genotype 3a assessed as replicon RNA level measured after 3 days by real-time PCR method; assay type: functional, organism-based, Hepacivirus hominis; details: 72 h
# [8] = system: Hepatitis C virus; assay: Antiviral activity against HCV genotype 1b assessed as replicon RNA level measured after 3 days by real-time PCR method; assay type: functional, organism-based, Hepacivirus hominis; details: 72 h
# [9] = system: Hepatitis C virus; assay: Antiviral activity against HCV genotype 1a assessed as replicon RNA level measured after 3 days by real-time PCR method; assay type: functional, organism-based, Hepacivirus hominis; details: subtype 1a, 72 h
# [10] = (§2) AUC in Sprague-Dawley rat at 5 mg/kg, po; assay type: ADME, organism-based; details: Sprague-Dawley, in vivo
# [11] = system: Hepatitis C virus; assay: Antiviral activity against HCV genotype 1a harboring NS5A L31V mutant assessed as replicon RNA level measured after 3 days by real-time PCR method; assay type: functional, organism-based, Hepacivirus hominis; details: subtype 1a, 72 h
# [12] = system: Hepatitis C virus; assay: Antiviral activity against HCV genotype 2b assessed as replicon RNA level measured after 3 days by real-time PCR method; assay type: functional, organism-based, Hepacivirus hominis; details: 72 h
# [13] = system: Rattus norvegicus; assay: as §1; assay type: ADME, organism-based; details: in vivo
# [14] = system: Rattus norvegicus; assay: as §2; assay type: ADME, organism-based; details: in vivo
# [15] = system: Canis familiaris; assay: Oral bioavailability in beagle dog at 5 mg/kg; assay type: ADME, organism-based, Canis lupus familiaris; details: in vivo
# [16] = Half life in beagle dog at 2 mg/kg, iv or 5 mg/kg, po; assay type: ADME, organism-based, Canis lupus familiaris; details: in vivo
# [17] = system: Canis familiaris; assay: AUC in beagle dog at 5 mg/kg, po; assay type: ADME, organism-based, Canis lupus familiaris; details: in vivo
# [18] = Selectivity ratio of EC50 for HCV genotype 2b to EC50 for HCV genotype 1a; assay type: functional
# [19] = system: Hepatitis C virus; assay: Selectivity ratio of EC50 for HCV genotype 1a harboring NS5A Y93H mutant to EC50 for HCV genotype 1a; assay type: functional, Hepacivirus hominis, subtype 1a
# [20] = system: Hepatitis C virus; assay: Selectivity ratio of EC50 for HCV genotype 1a harboring NS5A L31V mutant to EC50 for HCV genotype 1a; assay type: functional, Hepacivirus hominis, subtype 1a
Compound,bioavailability [1],EC50 [2],clearance [3],EC50 [4],half-life [5],EC50 [6],EC50 [7],EC50 [8],EC50 [9],AUC [10],EC50 [11],EC50 [12],F [13],AUC [14],F [15],half-life [16],AUC [17],Ratio EC50 [18],Ratio EC50 [19],Ratio EC50 [20]
COC(=O)N[C@H](C(=O)N1CCC[C@H]1c1ncc(-c2ccc3c(c2)OC(c2ccccc2F)n2c-3cc3cc(-c4cnc([C@@H]5CCCN5C(=O)[C@@H](NC(=O)OC)C(C)C)[nH]4)ccc32)[nH]1)C(C)C (some centres undefined),8%,0.007 nM,12 mL/min/kg,3 pM,276 min,6 nM,0.1 nM,3 pM,2 pM,0.67 µM·h,0.4 nM,3 nM,–,–,–,–,–,–,–,–
COC(=O)N[C@H](C(=O)N1CCC[C@H]1c1ncc(-c2ccc3c(c2)OC(c2ccc(Cl)cc2)n2c-3cc3cc(-c4cnc([C@@H]5CCCN5C(=O)[C@@H](NC(=O)OC)C(C)C)[nH]4)ccc32)[nH]1)C(C)C (some centres undefined),10%,0.01 nM,10 mL/min/kg,5 pM,270 min,5 nM,0.04 nM,10 pM,9 pM,0.88 µM·h,0.3 nM,–,–,–,–,–,–,–,–,–
COC(=O)N[C@H](C(=O)N1CCC[C@H]1c1ncc(-c2ccc3c(c2)OC(c2ccc(OC(F)(F)F)cc2)n2c-3cc3cc(-c4cnc([C@@H]5CCCN5C(=O)[C@@H](NC(=O)OC)C(C)C)[nH]4)ccc32)[nH]1)C(C)C (mixture of isomers),–,0.2 nM,–,5 pM,378 min,3 nM,0.03 nM,11 pM,5 pM,–,0.2 nM,–,7%,1.1 µM·h,–,–,–,–,–,–
COC(=O)N[C@H](C(=O)N1CCC[C@H]1c1ncc(-c2ccc3c(c2)OC(c2cccc(OC)c2)n2c-3cc3cc(-c4cnc([C@@H]5CCCN5C(=O)[C@@H](NC(=O)OC)C(C)C)[nH]4)ccc32)[nH]1)C(C)C (mixture of isomers),–,0.002 nM,–,4 pM,276 min,< 2 nM,0.02 nM,2 pM,4 pM,–,0.04 nM,0.4 nM,6%,0.52 µM·h,34%,474 min,5 µM·h,–,–,–
COC(=O)N[C@H](C(=O)N1CCC[C@H]1c1ncc(-c2ccc3c(c2)OC(c2cc(OC)cc(OC)c2)n2c-3cc3cc(-c4cnc([C@@H]5CCCN5C(=O)[C@@H](NC(=O)OC)C(C)C)[nH]4)ccc32)[nH]1)C(C)C (mixture of isomers),0%,0.01 nM,–,2 pM,–,0.8 nM,0.02 nM,2 pM,3 pM,–,0.3 nM,0.2 nM,–,–,–,–,–,67,267,100
COC(=O)N[C@H](C(=O)N1CCC[C@H]1c1ncc(-c2ccc3c(c2)OC(c2cccc(Cl)c2)n2c-3cc3cc(-c4cnc([C@@H]5CCCN5C(=O)[C@@H](NC(=O)OC)C(C)C)[nH]4)ccc32)[nH]1)C(C)C (some centres undefined),12%,0.002 nM,8 mL/min/kg,10 pM,246 min,3 nM,0.03 nM,2 pM,3 pM,1.4 µM·h,0.1 nM,0.4 nM,–,–,–,–,–,–,–,–
COC(=O)N[C@H](C(=O)N1CCC[C@H]1c1ncc(-c2ccc3c(c2)OC(c2cccc(F)c2)n2c-3cc3cc(-c4cnc([C@@H]5CCCN5C(=O)[C@@H](NC(=O)OC)C(C)C)[nH]4)ccc32)[nH]1)C(C)C (some centres undefined),12%,0.006 nM,7 mL/min/kg,4 pM,324 min,4 nM,0.04 nM,2 pM,3 pM,1.5 µM·h,0.2 nM,1 nM,–,–,–,–,–,–,–,–
COC(=O)N[C@H](C(=O)N1CCC[C@H]1c1ncc(-c2ccc3c(c2)OC(c2ccc(-c4ccncc4)cc2)n2c-3cc3cc(-c4cnc([C@@H]5CCCN5C(=O)[C@@H](NC(=O)OC)C(C)C)[nH]4)ccc32)[nH]1)C(C)C (mixture of isomers),–,0.02 nM,–,< 200 pM,–,19 nM,0.1 nM,4 pM,3 pM,–,0.3 nM,< 2 nM,–,–,–,–,–,–,–,–
COC(=O)N[C@H](C(=O)N1CCC[C@H]1c1ncc(-c2ccc3c(c2)OC(c2cc(F)cc(F)c2)n2c-3cc3cc(-c4cnc([C@@H]5CCCN5C(=O)[C@@H](NC(=O)OC)C(C)C)[nH]4)ccc32)[nH]1)C(C)C (some centres undefined),15%,0.004 nM,9 mL/min/kg,20 pM,306 min,4 nM,0.09 nM,10 pM,11 pM,1.5 µM·h,0.3 nM,0.5 nM,–,–,–,–,–,–,–,–
COC(=O)N[C@H](C(=O)N1CCC[C@H]1c1ncc(-c2ccc3c(c2)OC(c2cccc(C(=O)N(C)C)c2)n2c-3cc3cc(-c4cnc([C@@H]5CCCN5C(=O)[C@@H](NC(=O)OC)C(C)C)[nH]4)ccc32)[nH]1)C(C)C (mixture of isomers),–,0.18 nM,–,40 pM,–,> 100 nM,> 1 nM,10 pM,20 pM,–,0.4 nM,41 nM,–,–,–,–,–,–,–,–
COC(=O)N[C@H](C(=O)N1CCC[C@H]1c1ncc(-c2ccc3c(c2)OC(c2cccnc2)n2c-3cc3cc(-c4cnc([C@@H]5CCCN5C(=O)[C@@H](NC(=O)OC)C(C)C)[nH]4)ccc32)[nH]1)C(C)C (mixture of isomers),–,0.03 nM,–,40 pM,–,7 nM,2 nM,9 pM,5 pM,–,0.9 nM,2 nM,–,–,–,–,–,–,–,–
